Measurements: paper PMC10763615, “Identification and engineering of potent cyclic peptides with selective or promiscuous binding through biochemical profiling and bioinformatic data analysis” (RSC Chemical Biology, 2023)
Where two headings read alike, the source gives them in different places. Positions of bridges follow the written chain, without caps; N, C: chain ends. Residues, ends and D or L forms follow the SMILES beside them.

Tests used:
Assay type in all cases: binding
FGF-R1C ECD = target: T1, FGF-R1C ECD (Homo sapiens, UniProt P11362); assay: biochemical; set-up: DNA constructs for the extracellular domain (ECD) of human FGF-; HPC4 (C); made in house; host or cells: HEK 293-6E
T1 sequence (P11362 22-376 limits assumed): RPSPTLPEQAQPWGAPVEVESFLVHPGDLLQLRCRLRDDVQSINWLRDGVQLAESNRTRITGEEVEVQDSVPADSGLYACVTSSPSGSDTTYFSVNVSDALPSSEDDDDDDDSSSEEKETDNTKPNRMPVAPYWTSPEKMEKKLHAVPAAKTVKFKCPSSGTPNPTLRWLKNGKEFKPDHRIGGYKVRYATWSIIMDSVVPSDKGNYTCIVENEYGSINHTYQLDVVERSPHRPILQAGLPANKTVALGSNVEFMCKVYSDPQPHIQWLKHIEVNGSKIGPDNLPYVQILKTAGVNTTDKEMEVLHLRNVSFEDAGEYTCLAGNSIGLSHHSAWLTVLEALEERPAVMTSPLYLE
In short: (§1)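 Streptavidin biosensors carrying biotinylated FGF receptor ECD were immersed in peptide (~1 μM for crude single-point runs, a concentration series for purified peptides) and then in peptide-free buffer. KD was obtained by fitting the BLI association and dissociation curves.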

FGF-R3C ECD = target: T2, FGF-R3C ECD (Homo sapiens, UniProt P22607); assay: biochemical; set-up: DNA constructs for the extracellular domain (ECD) of human FGF-; HPC4 (C); made in house; host or cells: HEK 293-6E
T2 sequence (P22607 23-375 limits assumed): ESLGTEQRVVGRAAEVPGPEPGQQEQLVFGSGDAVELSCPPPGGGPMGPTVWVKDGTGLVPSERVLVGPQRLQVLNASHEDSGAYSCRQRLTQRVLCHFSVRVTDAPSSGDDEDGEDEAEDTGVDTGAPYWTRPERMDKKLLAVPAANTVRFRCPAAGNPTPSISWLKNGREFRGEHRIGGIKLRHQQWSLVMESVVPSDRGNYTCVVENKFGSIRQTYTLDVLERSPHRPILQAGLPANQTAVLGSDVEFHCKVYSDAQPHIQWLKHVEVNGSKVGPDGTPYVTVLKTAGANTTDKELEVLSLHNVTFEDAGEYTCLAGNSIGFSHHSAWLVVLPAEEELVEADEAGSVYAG
In short: as §1

FGF-R4 ECD = target: T3, FGF-R4 ECD (Homo sapiens, UniProt P22455); assay: single concentration BLI of crude peptides; conditions: read-out: KD (4)
T3 construct: DNA constructs for the extracellular domain (ECD) of human FGF-; HPC4 (C); made in house; host or cells: HEK 293-6E
T3 sequence (P22455 22-369 limits assumed): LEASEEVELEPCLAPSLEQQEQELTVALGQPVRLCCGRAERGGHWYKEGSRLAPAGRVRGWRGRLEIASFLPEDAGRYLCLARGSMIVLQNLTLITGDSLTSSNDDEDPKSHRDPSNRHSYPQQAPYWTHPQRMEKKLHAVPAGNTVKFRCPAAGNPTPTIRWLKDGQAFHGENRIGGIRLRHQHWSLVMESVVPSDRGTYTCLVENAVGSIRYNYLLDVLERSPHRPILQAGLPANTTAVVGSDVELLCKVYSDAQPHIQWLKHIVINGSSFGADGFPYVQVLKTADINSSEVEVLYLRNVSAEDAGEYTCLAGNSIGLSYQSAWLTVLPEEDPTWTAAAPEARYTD
In short: as §1

[1] = crude NNK peptides, single concentration BLI (Table S3)
[2] = crude T18 selection 1 (1:1:1) peptides, single concentration BLI (Table S4)

| Compound | Kd (FGF-R1C ECD) [µM] | Kd (FGF-R3C ECD) [µM] | Kd (FGF-R4 ECD; [1]) [µM] | Kd (FGF-R4 ECD; [2]) [µM] |
| --- | --- | --- | --- | --- |
| CSCC[C@H](NC(C)=O)C(=O)N[C@H]1CSSC[C@@H](C(=O)NCC(=O)N[C@@H](CO)C(=O)NCC(=O)N[C@@H](CO)C(=O)N[C@@H](CC(=O)O)C(=O)N[C@@H](Cc2ccc(O)cc2)C(=O)N[C@@H](CCCCN)C(=O)N[C@@H](CC(=O)O)C(=O)N[C@@H](CC(=O)O)C(=O)N[C@@H](CC(=O)O)C(=O)N[C@@H](CC(=O)O)C(=O)N[C@@H](CCCCN)C(N)=O)NC(=O)[C@H](CCC(N)=O)NC(=O)[C@H](CCCCN)NC(=O)[C@H](Cc2ccc(O)cc2)NC(=O)[C@H](C(C)C)NC(=O)[C@H]([C@@H](C)O)NC(=O)[C@H](Cc2c[nH]c3ccccc23)NC(=O)[C@H](Cc2ccc(O)cc2)NC(=O)[C@H](CCCCN)NC(=O)[C@H](C(C)C)NC(=O)[C@H](Cc2c[nH]c3ccccc23)NC1=O (Ac-MCWVKYWTVYKQCGSGSDYKDDDDK-NH2; disulfide 2-13) | > 10 | > 10 | 0.207 |  |
| CSCC[C@H](NC(C)=O)C(=O)N[C@H]1CSSC[C@@H](C(=O)NCC(=O)N[C@@H](CO)C(=O)NCC(=O)N[C@@H](CO)C(=O)N[C@@H](CC(=O)O)C(=O)N[C@@H](Cc2ccc(O)cc2)C(=O)N[C@@H](CCCCN)C(=O)N[C@@H](CC(=O)O)C(=O)N[C@@H](CC(=O)O)C(=O)N[C@@H](CC(=O)O)C(=O)N[C@@H](CC(=O)O)C(=O)N[C@@H](CCCCN)C(N)=O)NC(=O)[C@H](Cc2c[nH]cn2)NC(=O)[C@H](Cc2c[nH]c3ccccc23)NC(=O)[C@H](CC(N)=O)NC(=O)[C@H](Cc2ccc(O)cc2)NC(=O)[C@H](Cc2c[nH]cn2)NC(=O)[C@H](Cc2c[nH]cn2)NC(=O)[C@H](CO)NC(=O)[C@H](Cc2ccc(O)cc2)NC(=O)[C@H](CCC(N)=O)NC(=O)[C@H](Cc2c[nH]c3ccccc23)NC(=O)[C@H](C(C)C)NC1=O (Ac-MCVWQYSHHYNWHCGSGSDYKDDDDK-NH2; disulfide 2-14) | > 10 | > 10 |  | > 10 |
| CSCC[C@H](NC(C)=O)C(=O)N[C@H]1CSSC[C@@H](C(=O)NCC(=O)N[C@@H](CO)C(=O)NCC(=O)N[C@@H](CO)C(=O)N[C@@H](CC(=O)O)C(=O)N[C@@H](Cc2ccc(O)cc2)C(=O)N[C@@H](CCCCN)C(=O)N[C@@H](CC(=O)O)C(=O)N[C@@H](CC(=O)O)C(=O)N[C@@H](CC(=O)O)C(=O)N[C@@H](CC(=O)O)C(=O)N[C@@H](CCCCN)C(N)=O)NC(=O)[C@H](C(C)C)NC(=O)[C@H](CCCNC(=N)N)NC(=O)[C@H](CCSC)NC(=O)[C@H](C(C)C)NC(=O)[C@H](CCCCN)NC(=O)[C@H](Cc2ccc(O)cc2)NC(=O)[C@H](CC(C)C)NC(=O)[C@H](CC(C)C)NC(=O)[C@H](C(C)C)NC(=O)CNC1=O (Ac-MCGVLLYKVMRVCGSGSDYKDDDDK-NH2; disulfide 2-13) | > 10 | > 10 | 0.124 |  |
| CC[C@H](C)[C@@H]1NC(=O)[C@@H](NC(=O)[C@H](CCSC)NC(C)=O)CSSC[C@@H](C(=O)NCC(=O)N[C@@H](CO)C(=O)NCC(=O)N[C@@H](CO)C(=O)N[C@@H](CC(=O)O)C(=O)N[C@@H](Cc2ccc(O)cc2)C(=O)N[C@@H](CCCCN)C(=O)N[C@@H](CC(=O)O)C(=O)N[C@@H](CC(=O)O)C(=O)N[C@@H](CC(=O)O)C(=O)N[C@@H](CC(=O)O)C(=O)N[C@@H](CCCCN)C(N)=O)NC(=O)[C@H](Cc2c[nH]cn2)NC(=O)[C@H](CO)NC(=O)[C@H]([C@@H](C)CC)NC(=O)[C@H](CC(C)C)NC(=O)[C@H](Cc2ccc(O)cc2)NC(=O)[C@H](Cc2ccc(O)cc2)NC(=O)[C@H](Cc2ccccc2)NC(=O)[C@H](CC(C)C)NC(=O)[C@H](Cc2ccc(O)cc2)NC(=O)[C@H](CCCNC(=N)N)NC1=O (Ac-MCIRYLFYYLISHCGSGSDYKDDDDK-NH2; disulfide 2-14) | > 10 | > 10 |  | 0.002 |
| CC[C@H](C)[C@@H]1NC(=O)[C@H](CO)NC(=O)[C@H]([C@@H](C)CC)NC(=O)[C@H](CC(C)C)NC(=O)[C@@H](NC(=O)[C@H](CCSC)NC(C)=O)CSSC[C@@H](C(=O)NCC(=O)N[C@@H](CO)C(=O)NCC(=O)N[C@@H](CO)C(=O)N[C@@H](CC(=O)O)C(=O)N[C@@H](Cc2ccc(O)cc2)C(=O)N[C@@H](CCCCN)C(=O)N[C@@H](CC(=O)O)C(=O)N[C@@H](CC(=O)O)C(=O)N[C@@H](CC(=O)O)C(=O)N[C@@H](CC(=O)O)C(=O)N[C@@H](CCCCN)C(N)=O)NC(=O)[C@H](Cc2c[nH]cn2)NC(=O)[C@H](CCCCN)NC(=O)[C@H](CC(C)C)NC(=O)[C@H](C(C)C)NC(=O)[C@H](CCCCN)NC(=O)[C@H](Cc2ccc(O)cc2)NC1=O (Ac-MCLISIYKVLKHCGSGSDYKDDDDK-NH2; disulfide 2-13) | > 10 | > 10 | > 10 |  |
| CC[C@H](C)[C@@H]1NC(=O)[C@H](CC(=O)O)NC(=O)[C@H](Cc2ccc(O)cc2)NC(=O)[C@@H](NC(=O)[C@H](CCSC)NC(C)=O)CSSC[C@@H](C(=O)NCC(=O)N[C@@H](CO)C(=O)NCC(=O)N[C@@H](CO)C(=O)N[C@@H](CC(=O)O)C(=O)N[C@@H](Cc2ccc(O)cc2)C(=O)N[C@@H](CCCCN)C(=O)N[C@@H](CC(=O)O)C(=O)N[C@@H](CC(=O)O)C(=O)N[C@@H](CC(=O)O)C(=O)N[C@@H](CC(=O)O)C(=O)N[C@@H](CCCCN)C(N)=O)NC(=O)[C@H](Cc2c[nH]cn2)NC(=O)[C@H](Cc2ccc(O)cc2)NC(=O)[C@H](C(C)C)NC(=O)[C@H]([C@@H](C)O)NC(=O)[C@H]([C@@H](C)CC)NC(=O)[C@H](Cc2ccc(O)cc2)NC(=O)[C@H](CC(=O)O)NC(=O)[C@H](Cc2ccccc2)NC(=O)[C@H](C(C)C)NC1=O (Ac-MCYDIVFDYITVYHCGSGSDYKDDDDK-NH2; disulfide 2-15) | > 10 | > 10 |  | 0.021 |
| CC[C@H](C)[C@@H]1NC(=O)[C@@H]2CCCN2C(=O)[C@H](Cc2c[nH]c3ccccc23)NC(=O)[C@H](Cc2ccccc2)NC(=O)[C@@H](NC(=O)[C@H](CCSC)NC(C)=O)CSSC[C@@H](C(=O)NCC(=O)N[C@@H](CO)C(=O)NCC(=O)N[C@@H](CO)C(=O)N[C@@H](CC(=O)O)C(=O)N[C@@H](Cc2ccc(O)cc2)C(=O)N[C@@H](CCCCN)C(=O)N[C@@H](CC(=O)O)C(=O)N[C@@H](CC(=O)O)C(=O)N[C@@H](CC(=O)O)C(=O)N[C@@H](CC(=O)O)C(=O)N[C@@H](CCCCN)C(N)=O)NC(=O)[C@H](C)NC(=O)[C@H](CCSC)NC(=O)[C@H](Cc2ccccc2)NC(=O)[C@H](CCCCN)NC(=O)[C@H](Cc2ccc(O)cc2)NC(=O)[C@H](Cc2c[nH]c3ccccc23)NC1=O (Ac-MCFWPIWYKFMACGSGSDYKDDDDK-NH2; disulfide 2-13) | > 10 | > 10 | > 10 |  |
| CC[C@H](C)[C@@H]1NC(=O)[C@H](CC(C)C)NC(=O)[C@H](Cc2c[nH]c3ccccc23)NC(=O)[C@H](CCCCN)NC(=O)[C@@H]2CCCN2C(=O)[C@@H](NC(=O)[C@H](CCSC)NC(C)=O)CSSC[C@@H](C(=O)NCC(=O)N[C@@H](CO)C(=O)NCC(=O)N[C@@H](CO)C(=O)N[C@@H](CC(=O)O)C(=O)N[C@@H](Cc2ccc(O)cc2)C(=O)N[C@@H](CCCCN)C(=O)N[C@@H](CC(=O)O)C(=O)N[C@@H](CC(=O)O)C(=O)N[C@@H](CC(=O)O)C(=O)N[C@@H](CC(=O)O)C(=O)N[C@@H](CCCCN)C(N)=O)NC(=O)[C@H](CC(N)=O)NC(=O)[C@H](CC(C)C)NC(=O)[C@H](CC(C)C)NC(=O)[C@H](C(C)C)NC(=O)[C@H](CCCCN)NC1=O (Ac-MCPKWLIKVLLNCGSGSDYKDDDDK-NH2; disulfide 2-13) | > 10 | > 10 | 4.19 |  |
